Source: patent US11597739B2, “Enhancing CD8+ T cells for adoptive T cell therapy by inhibiting PTPN1 (PTP1B) and PTPN2 (TC-PTP)” (The Royal Institution for the Advancement of …, priority 2017, dated 2023)

Test system: OVA expressing EG.7 lymphoma target cells
Test: Calcein-release cytotoxicity assay of OT-1 CTLs
Assay type: cell-based, mouse
Settings: OT-1 CD8 cells activated with inhibitor at 50 μM; 5 hours; every effector to target ratio; versus untreated, K882 or K885
Procedure: 9) Cytotoxicity Experiments
3 days before the experiment thaw a new vial of EG.7 cells. After 24 h in culture, the cells are resuspended at 5×10^4 and 100 U/ml of IFN-γ is added. The day of the experiment, the EG.7 cells are harvested, washed once with HBSS. The EG.7 cells are resuspended at 10^6/ml in HBSS and 10 μM Calcein-AM added. The cells are incubated at 37° C. for 1 hr in the dark, washed twice with complete RPMI and counted. They are then resuspend at 3×10^5/ml.
The following wells from a 0.75×10^6/ml suspension of the CD8 (Effector) cells to have different effector to target ratios are prepared in duplicate. Before plating the effector cells, RPMI complete is added, 50 μl to the 5:1 ratio wells and 90 μl to the 1:1 ratio wells. • 75×10^3 (100 μl) 25:1 ratio. • Dilute the suspension 1:2.5 volumes: • 30×10^3 (100 μl) 10:1 ratio. • 15×10^3 (50 μl) 5:1 ratio. • 3×10^3 (10 μl) 1:1 ratio. • Prepare at least 2 wells with 100 μl of RPMI complete.
100 μl of EG.7 (Target) cells is added and spin at 400×g for 2 minutes, RT. […]
For Controls: Background fluorescence (BF): Harvest 100 μl supernatant from control wells. Absolut fluorescence (AF): Add 100 μl of methanol to the control wells harvested for background. […]
Calculate the specific cell lysis as follows: Specific cell lysis=((Sample−BF)/(AF−BF))×100 10) Flow Cytometry 1. […] Record cell quantity transfers per tube; • b. […]

With CCOC(=O)c1cc2cc(C(F)(F)P(=O)(O)O)c(Br)cc2s1 [Ex. 1, ((6-BROMO-2-(ETHOXYCARBONYL)BENZO[B]THIOPHEN-5-YL)DIFLUOROMETHYL)PHOSPHONATE] the “specific cytotoxicity (lysis of EG.7 cells)” value was “lysed EG.7 cells with greater efficiency”.
